The values below come from patent US7544835B2, “Carboxylic acid derivative and salt thereof” (Eisai R&D Management Co., Ltd., priority 2001, dated 2009).

Read-outs that look alike come from different tables or passages of the source.

The assay relates to male db/db mice. Description: Blood glucose, triglyceride and non-esterified fatty acid reduction in db/db mice. It counts as in vivo. The settings on record: Mus musculus, 216 h, oral once a day, day 9 after administration. On the procedure: A chemical suspended in 0.5% methyl cellulose was orally administered via a sonde into male db/db mice (Nippon Charles River, Yokohama, JP) once a day (0.3 to 30 mg/kg/day). Before treatment and after 4 and 9 days treatment, blood was collected through a tail vein after the mice were fasted for 1 hour, respectively. On Day 10, an oral glucose loading test was conducted; in this test, the mice were fasted overnight from the previous day, and in the next morning, 2 g/kg glucose was given to the mice. Plasma glucose, triglycerides (TG), non-esterified fatty acid (NEFA) were measured by using commercial kits, that is, Glucose C-II Test Wako (trade name) (Wako Pure Chemical Industries, Ltd., Tokyo), Determiner L TG II (trade name) (Kyowa Medex, Tokyo) and NEFA C-Test Wako (Wako Pure Chemical Industries, Ltd., Tokyo), respectively.
The determined blood glucose reduction, blood triglyceride reduction and blood non-esterified fatty acid reduction at day 9 after administration are shown in Table 1.

Where [1] appears, read: read-out: Blood free fatty acid reduction (%).
Setting [2] is: read-out: Blood sugar reduction (%).
Setting [3] is: read-out: Blood triglyceride reduction (%).

Turning to `CC(C)OC(Cc1cccc(OCC#Cc2ccc(Cl)cc2Cl)c1)C(=O)O` (stereo not drawn) [Ex 100, 2-Isopropoxy-3-(3-[3-(2,4-dichlorophenyl)-2-propynyl]oxyphenyl)propanoic acid], the inhibition in vivo at 6 mg/kg by setting is: under setting [1], 60.7%; under setting [2], 65.1%; under setting [3], 79.3%.
`CC(C)OC(Cc1cccc(C#C[C@]2(O)CC[C@@H](C(C)(C)C)CC2)c1)C(=O)O` (stereo partly drawn) [Ex 113, trans-3-(3-2-[4-t-Butyl-1-hydroxycyclohexyl]-1-ethynylphenyl)-2-isopropoxypropanoic acid]: the inhibition in vivo at 6 mg/kg is, setting by setting: under setting [1], 39.5%; under setting [2], 70%; under setting [3], 81.8%.
As for `CC(C)O[C@@H](Cc1cccc(CNC(=O)OCc2ccc(OC(F)(F)F)cc2)c1)C(=O)O` [Ex 335, 2 (S)-Isopropoxy-3-{3-[(4-trifluoromethoxybenzyloxycarbonylamino)methyl]phenyl}-propanoic acid], the inhibition in vivo at 3 mg/kg is 40% under setting [1], 57.2% under setting [2] and 81.4% under setting [3].
For `CC(C)O[C@@H](Cc1cccc(OC[C@H](F)COc2ccc(Cl)cc2C#N)c1)C(=O)O` [Example 329, 3-{3-[3-(4-Chloro-2-cyanophenoxy)-2(S)-fluoropropoxy]phenyl}-2(S)-isopropoxypropanoic acid] the same measures were 47.5%, 37.7% and 36.8%.
In the same order, the values of `CC(C)O[C@@H](Cc1cccc(OC[C@H](O)COc2ccc(Cl)cc2)c1)C(=O)O` [Example 282, 3-(3-{2(R)-Hydroxy-3-[4-chlorophenoxy]propoxy}phenyl)-2(S)-isopropoxypropanoic acid] are 18.4%, 17.9% and 59.7%.
For `CC(C)O[C@@H](Cc1cccc(OC[C@@H](F)COc2ccc(Cl)cc2Cl)c1)C(=O)O` [Example 320, 3-{3-[3-(2,4-Dichlorophenoxy)-2 (R)-fluoropropoxy]phenyl}-2(S)-isopropoxypropanoic acid] the same measures were 35.4%, 56.3% and 80.3%.
Consider `CC(C)O[C@@H](Cc1cccc(CNC(=O)OCc2cccc(OC(F)(F)F)c2)c1)C(=O)O` [Ex 344, 3-(3-{[3-Trifluoromethoxybenzyloxycarbonylamino]methyl}phenyl)-2(S)-isopropoxypropanoic acid], for which the inhibition in vivo at 3 mg/kg under setting [1] was determined as 58.1%, the inhibition in vivo at 3 mg/kg under setting [2] was 45.8% and the inhibition in vivo at 3 mg/kg under setting [3] came out at 61.8%.
Turning to `C/C(=N\OCc1ccc(C(F)(F)F)cc1)c1cccc(CC(OC(C)C)C(=O)O)c1` (stereo not drawn) [Ex 132, 2-Isopropoxy-3-[3-([4-(trifluoromethyl)benzyl]-oxyethaneimidoyl)phenyl]propanoic acid], the inhibition in vivo at 6 mg/kg runs as follows: under setting [1], 72.5%; under setting [2], 50.4%; under setting [3], 75.5%.
